Source: the supplement of paper PMC10307832

Legend:
Assay in all cases: relative viability (nuclei count vs DMSO), 5 days (fraction); higher = more cells survive
[1] = compound: CC(C)(C)c1cc(NC(=O)Nc2ccc(-c3cn4c(n3)sc3cc(OCCN5CCOCC5)ccc34)cc2)no1 [Quizartinib] + COc1cc2c(Oc3ccc(NC(=O)C4(C(=O)Nc5ccc(F)cc5)CC4)cc3F)ccnc2cc1OCCCN1CCOCC1 [Foretinib] (partner 0.25 µM)
Method in brief: (§1)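 Dosing by pin tool came one day after lung cancer cell lines were seeded in 1536-well plates, using either one drug or a fixed anchor-drug dose plus five library-drug doses (not always all listed) in √10 steps. After 5 days, nuclei were counted on 4× images. Relative viability is treated-well nuclei count divided by vehicle-well nuclei count, and values are medians of duplicate plates.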

[2] = compound: CC(C)(C)c1cc(NC(=O)Nc2ccc(-c3cn4c(n3)sc3cc(OCCN5CCOCC5)ccc34)cc2)no1 [Quizartinib] + C[C@@H](Oc1cc(-c2cnn(C3CCNCC3)c2)cnc1N)c1c(Cl)ccc(F)c1Cl [Crizotinib] (partner 1 µM)
Method in brief: as §1

[3] = compound: CC(C)(C)c1cc(NC(=O)Nc2ccc(-c3cn4c(n3)sc3cc(OCCN5CCOCC5)ccc34)cc2)no1 [Quizartinib] + C[C@]1(O)C[C@@H](c2nc(-c3ccc4ccc(-c5ccccc5)nc4c3)c3c(N)nccn32)C1 [Linsitinib] (partner 1 µM)
Method in brief: as §1

[4] = compound: COCC[n+]1c2c(n(Cc3cnccn3)c1C)C(=O)c1ccccc1C2=O [YM155] + CS(=O)(=O)N1CCN(Cc2cc3nc(-c4cccc5[nH]ncc45)nc(N4CCOCC4)c3s2)CC1 [Pictilisib] (partner 1 µM)
Method in brief: as §1

Row | Cell Line | relative viability ([1]; first compound 0.001 µM) | relative viability ([1]; first compound 0.003162 µM) | relative viability ([1]; first compound 0.01 µM) | relative viability ([1]; first compound 0.03162 µM) | relative viability ([1]; first compound 0.1 µM) | relative viability ([2]; first compound 0.003162 µM) | relative viability ([2]; first compound 0.01 µM) | relative viability ([2]; first compound 0.03162 µM) | relative viability ([2]; first compound 0.1 µM) | relative viability ([3]; first compound 0.003162 µM) | relative viability ([3]; first compound 0.01 µM) | relative viability ([3]; first compound 0.03162 µM) | relative viability ([3]; first compound 0.1 µM) | relative viability ([4]; first compound 0.002 µM) | relative viability ([4]; first compound 0.006325 µM) | relative viability ([4]; first compound 0.02 µM) | relative viability ([4]; first compound 0.06325 µM) | relative viability ([2]; first compound 0.001 µM) | relative viability ([3]; first compound 0.001 µM)
1 | LCLC-97TM1 | 0.889 | 0.802 | 0.906 | 0.953 | 0.971 | 0.27 | 0.463 | 0.297 | 0.417 | 0.148 | 0.185 | 0.174 | 0.21 | 0.184 | 0.208 | 0.221 | 0.148 |  | 
2 | NCI-H441 | 1.23 | 0.923 | 1.13 |  | 0.914 | 0.624 | 0.896 | 0.673 | 0.969 | 0.645 | 0.607 | 0.51 | 0.479 | 0.539 | 0.527 | 0.47 | 0.381 | 0.527 | 0.357
3 | EBC-1 | 0.0847 | 0.105 | 0.0907 | 0.133 | 0.121 | 0.173 | 0.211 | 0.207 | 0.211 | 0.972 | 0.956 | 0.989 | 0.948 | 0.436 | 0.345 | 0.459 | 0.339 | 0.197 | 0.801
4 | NCI-H838 | 0.991 | 1.01 | 0.99 | 0.938 | 0.684 | 0.878 | 0.767 | 0.691 | 0.368 | 0.912 | 0.991 | 0.963 | 0.576 | 0.386 | 0.521 | 0.536 | 0.299 | 0.787 | 0.919
5 | NCI-H1437 | 0.719 | 1.16 | 1.28 | 1.07 | 0.949 | 0.849 | 0.906 | 0.687 | 0.608 | 0.897 | 1.01 | 0.898 | 0.706 | 0.417 | 0.404 | 0.468 | 0.507 | 0.822 | 0.954
6 | LXF-289 | 0.913 | 1 | 1.13 | 0.948 | 0.888 | 0.787 | 0.821 | 0.8 | 0.726 | 0.944 | 1.02 | 0.958 | 0.92 | 0.772 | 0.771 | 0.752 | 0.549 | 0.743 | 0.899
7 | LU99A | 0.715 | 0.871 | 0.838 | 0.808 | 0.603 | 0.507 | 0.656 | 0.534 | 0.507 | 0.504 | 0.628 | 0.497 | 0.417 | 0.354 | 0.335 | 0.315 | 0.284 | 0.49 | 0.509
8 | HOP-62 | 0.907 | 1.09 | 1.22 | 1.07 | 1.09 | 0.98 | 1.11 | 1.11 | 0.86 | 0.933 | 0.822 | 0.913 | 1.07 | 0.79 | 0.63 | 0.818 | 0.749 | 0.881 | 1.02
